Source: ChEMBL document CHEMBL1128039, “Acyl CoA:cholesterol acyltransferase (ACAT) inhibitors: ureas bearing two heterocyclic head groups” (Bioorg Med Chem Lett, 1995)

Tested on: Cricetinae gen. sp.
Assay: In vivo activity, with an ED50 inlowering cholesterol levels in the cholesterol-fed hamster
Type: functional, Cricetulus griseus

Q: How did the ED50 turn out when `CCCCCCCN(CCCCCSc1nc(-c2ccccc2)c(-c2ccccc2)[nH]1)C(=O)Nc1ccc(F)cc1F` [LECIMIBIDE] was run?
A: The ED50 was 3 mg/kg.
